Tests used:
Type in all cases: in vivo, human
[1] = Example 1: alkali metal composition in water taken daily by a 100 kg person for two months; conditions: 300 mg in water, each over another two-month period
Protocol: A 100 kg person was administered a pharmaceutical composition of the invention. Cesium chloride ([…]), rubidium chloride ([…]) and lithium aspartate (40 milligrams) together were dissolved in one glass of water and ingested in the morning daily over a two month period.

[2] = Weight loss trials in one subject (first to fifth and further trials, Examples 4-9); conditions: for weight lost during the trial: two months (61 days)
From the text: The therapeutic efficacy of a composition in accordance with the present invention has been tested herein.
These trials were not undertaken to lose weight as quickly as possible but rather they were undertaken with the recommendation by doctors to the subject(s) not to lose weight too quickly and to eat potassium rich foods, especially at night, instead of junk food.
As such, the aim of these trials was to have the subjects lose weight and stop the cravings for junk food with the aid of the compositions of this invention and use the enhanced energy and stimulation supplied from the compositions to change eating habits away from junk food thereby facilitating weight loss.
During a first trial, a subject was administered 300 mg of cesium chloride once per day in a glass of water every morning. The first trial lasted two months (61 days) and the subject (100 kg) lost ten kilograms during this time period, as follows:
In a second trial, the subject was administered 120 mg of lithium carbonate once per day with a glass of water every morning for two months (59 days). The subject reported after two weeks the stress of trying to diminish junk food intake was reduced.
In a third trial, the subject was administered 40 mg of lithium carbonate with a glass of water every morning for two months. The subject reported that the most difficult aspect was to stop the craving for junk food in the evening and the late afternoon.
In a fourth trial, the subject was administered 300 mg of rubidium chloride once per once day in a glass of water in the morning. This trial lasted two months (61 days), and the subject lost ten kilograms during this time period. The most difficult aspect reported was the urge to eat junk food for dinner and the cravings in the evening, which contributed to poor weight loss at the beginning of the trial (an option for people who cannot stop eating junk food at night would be to split the dosage and take half in the morning and half late in the afternoon or increase the dosage to 200 mg in the morning and 200 mg in the late afternoon).
In a fifth trial, the subject was administered 150 mg of rubidium chloride, 150 mg cesium chloride, and 40 mg of lithium carbonate once per day together in a glass of water in the morning. This trial lasted two months (61 days) and the subject lost ten kilograms during this time period. The most difficult aspect reported by the subject was the craving for junk food for dinner or late in the afternoon. This contributed to the little weight loss early in the study.
In further trials, the subject was administered lithium salts—lithium orotate, lithium aspartate, and lithium citrate (40 mg) with a glass of water in the morning. The subject reported similar cravings as noted above.

[3] = Blind trial with two subjects (rubidium chloride vs powdered sugar placebo), Example 10; conditions: rubidium chloride 300 mg once per day
Protocol: In a blind trial with two subjects, a subject (66 kg) was administered 300 mg of rubidium chloride once per day in a glass of water in the morning for two months (61 days). The second subject was a person (98 kg) who was administered a placebo of powdered sugar once per day in a glass of water in the morning during the same two months.
The most difficult aspect reported by the subject was to stop eating junk food for dinner and to stop the craving for junk food in the evening, which is believed to be the reason for little weight loss at the beginning of the trial (a proposed solution for people who cannot stop eating at night would be to split the dosage of the 300 mg of rubidium chloride and take half in the morning and half late in the afternoon).
The aim of this trial was to have the subject lose weight and stop the craving for junk food with the aid of the composition. The enhanced energy and stimulation supplied from the composition that was tested to determine if it prompted a change in eating habits away from junk food, thereby facilitated weight loss. Both subjects stated there was a higher craving for junk food for them in the afternoon and evening.
The trial lasted two months and the subject lost no weight and found the powdered sugar caused no stimulation, while the subject lost 6.5 kilograms during this time period, as follows: […]

[4] = further trials, lithium salt 40 mg in the morning
[5] = further trials, lithium salt 40 mg in the morning, after two weeks
[6] = further trials, lithium salt 40 mg with a glass of water in the morning

Structure (SMILES): [Cl-].[Cs+] [cesium chloride]
- effect of the individual alkali metals ingested separately, compared with the combination [1]: worked as well and with the same sensation
- Weight ([2]; first trial, cesium chloride 300 mg once per day, day 1-9): 100 kg
- Weight ([2]; first trial, cesium chloride 300 mg once per day, day 10-13): 99 kg
- Weight ([2]; first trial, cesium chloride 300 mg once per day, day 14-15): 98 kg
- Weight ([2]; first trial, cesium chloride 300 mg once per day, day 16-23): 97 kg
- Weight ([2]; first trial, cesium chloride 300 mg once per day, day 24-34): 96 kg
- Weight ([2]; first trial, cesium chloride 300 mg once per day, day 35-41): 95 kg
- Weight ([2]; first trial, cesium chloride 300 mg once per day, day 42-47): 94 kg
- Weight ([2]; first trial, cesium chloride 300 mg once per day, day 48-52): 93 kg
- Weight ([2]; first trial, cesium chloride 300 mg once per day, day 53-55): 92 kg
- Weight ([2]; first trial, cesium chloride 300 mg once per day, day 56-58): 91 kg
- Weight ([2]; first trial, cesium chloride 300 mg once per day, day 59-61): 90 kg
- weight lost during the trial ([2]; first trial, cesium chloride 300 mg once per day, subject 100 kg): ten

Structure (SMILES): O=C([O-])[O-].[Li+].[Li+] [lithium carbonate]
- stress of trying to diminish junk food intake (subject report) ([2]; second trial, lithium carbonate 120 mg once per day, after two weeks): reduced
- Weight ([2]; second trial, lithium carbonate 120 mg once per day, day 1-14): 100 kg
- Weight ([2]; second trial, lithium carbonate 120 mg once per day, day 15-19): 99 kg
- Weight ([2]; second trial, lithium carbonate 120 mg once per day, day 20-27): 98 kg
- Weight ([2]; second trial, lithium carbonate 120 mg once per day, day 28-35): 97 kg
- Weight ([2]; second trial, lithium carbonate 120 mg once per day, day 36-39): 96 kg
- Weight ([2]; second trial, lithium carbonate 120 mg once per day, day 40-46): 95 kg
- Weight ([2]; second trial, lithium carbonate 120 mg once per day, day 47-52): 94 kg
- Weight ([2]; second trial, lithium carbonate 120 mg once per day, day 53-57): 93 kg
- Weight ([2]; second trial, lithium carbonate 120 mg once per day, day 58-59): 92 kg
- weight loss (in words) ([2]; second trial, lithium carbonate 120 mg once per day, two months (59 days)): Weight loss resulted
- feeling of stimulation (subject report) ([2]; third trial, lithium carbonate 40 mg every morning): not the feeling of stimulation as in the first trial
- stress of trying to reduce junk food intake (subject report) ([2]; third trial, lithium carbonate 40 mg every morning, after two weeks): reduced
- Weight ([2]; third trial, lithium carbonate 40 mg every morning, day 1-15): 100 kg
- Weight ([2]; third trial, lithium carbonate 40 mg every morning, day 16-25): 99 kg
- Weight ([2]; third trial, lithium carbonate 40 mg every morning, day 26-34): 98 kg
- Weight ([2]; third trial, lithium carbonate 40 mg every morning, day 35-41): 97 kg
- Weight ([2]; third trial, lithium carbonate 40 mg every morning, day 42-48): 96 kg
- Weight ([2]; third trial, lithium carbonate 40 mg every morning, day 49-53): 95 kg
- Weight ([2]; third trial, lithium carbonate 40 mg every morning, day 54-57): 94 kg
- Weight ([2]; third trial, lithium carbonate 40 mg every morning, day 58-60): 93 kg
- Weight ([2]; third trial, lithium carbonate 40 mg every morning, day 61): 92 kg
- weight loss (in words) ([2]; third trial, lithium carbonate 40 mg every morning, two months): Weight loss also resulted

Structure (SMILES): O=C([O-])CC(O)(CC(=O)[O-])C(=O)[O-].[Li+].[Li+].[Li+] [lithium citrate]
- feeling of stimulation (subject report) [2, 4]: not the feeling of stimulation as in the first and fourth trials
- stress of trying to diminish junk food intake (subject report) [2, 5]: decreased
- weight loss (in words) [2, 6]: Weight loss was recorded

Structure (SMILES): N[C@@H](CC(=O)[O-])C(=O)[O-].[Li+].[Li+] [lithium aspartate]
- feeling of stimulation (subject report) [2, 4]: not the feeling of stimulation as in the first and fourth trials
- stress of trying to diminish junk food intake (subject report) [2, 5]: decreased
- weight loss (in words) [2, 6]: Weight loss was recorded

Structure (SMILES): [Cl-].[Rb+] [rubidium chloride]
- effect of the individual alkali metals ingested separately, compared with the combination [1]: worked as well and with the same sensation
- Weight ([2]; fourth trial, rubidium chloride 300 mg once per day, day 1-10): 102 kg
- Weight ([2]; fourth trial, rubidium chloride 300 mg once per day, day 11-15): 101 kg
- Weight ([2]; fourth trial, rubidium chloride 300 mg once per day, day 16-23): 100 kg
- Weight ([2]; fourth trial, rubidium chloride 300 mg once per day, day 24-29): 99 kg
- Weight ([2]; fourth trial, rubidium chloride 300 mg once per day, day 30-35): 98 kg
- Weight ([2]; fourth trial, rubidium chloride 300 mg once per day, day 36-40): 97 kg
- Weight ([2]; fourth trial, rubidium chloride 300 mg once per day, day 41-45): 96 kg
- Weight ([2]; fourth trial, rubidium chloride 300 mg once per day, day 46-50): 95 kg
- Weight ([2]; fourth trial, rubidium chloride 300 mg once per day, day 51-54): 94 kg
- Weight ([2]; fourth trial, rubidium chloride 300 mg once per day, day 55-59): 93 kg
- Weight ([2]; fourth trial, rubidium chloride 300 mg once per day, day 60-61): 92 kg
- weight lost during the trial ([2]; fourth trial, rubidium chloride 300 mg once per day): ten
- weight lost during the trial ([3]; subject (66 kg), two months (61 days)): 6.5 kilograms
- craving for junk food (subject report) ([3]; subject): less craving for junk food than normal even after the first day
- energy and activity during the day (subject report) ([3]; subject): much more energy than before
- stimulation from the medication (subject report) ([3]; subject): very, very strong
- Weight ([3]; subject, day 1-5): 66 kg
- Weight ([3]; subject, day 6-9): 65.5 kg
- Weight ([3]; subject, day 10-12): 65 kg
- Weight ([3]; subject, day 13-18): 64 kg
- Weight ([3]; subject, day 19-28): 63 kg
- Weight ([3]; subject, day 29-30): 64 kg
- Weight ([3]; subject, day 31-32): 63.5 kg
- Weight ([3]; subject, day 33-34): 63 kg
- Weight ([3]; subject, day 35-43): 62 kg
- Weight ([3]; subject, day 44-51): 61 kg
- Weight ([3]; subject, day 52-55): 60.5 kg
- Weight ([3]; subject, day 56-59): 60 kg
- Weight ([3]; subject, day 60-61): 59.5 kg

Structure (SMILES): O=C([O-])c1cc(=O)[nH]c(=O)[nH]1.[Li+] [lithium orotate]
- feeling of stimulation (subject report) [2, 4]: not the feeling of stimulation as in the first and fourth trials
- stress of trying to diminish junk food intake (subject report) [2, 5]: decreased
- weight loss (in words) [2, 6]: Weight loss was recorded

Source: patent publication US8815304B2, “Compositions and methods for promoting appetite suppression using alkali metals” (Ashberry International Limited, priority 2010, dated 2014)
